Our source for the inhibition values is patent EP4467141A1, “PYRAZOLO-QUINOLINES AS SELECTIVE INHIBITORS OF GENOTOXIC STRESS-INDUCED IKK/NF- KB PATHWAYS FOR CANCER THERAPY” (Max-Delbrück-Centrum für Molekulare Medizin in der …, priority 2023, dated 2024).

Common to all, as to assay: Kinase panel study
Holding throughout (type): biochemical
What all share (conditions): read-out: Percentage of inhibition; for inhibition at 1 µM: 1000nM; for inhibition at 10 µM: 10000nM

One experiment addresses T1, MAPKAPK5 (PRAK) (Homo sapiens, UniProt Q8IW41).
T1 construct: purchased Thermo Fisher Scientific
T1 sequence (Q8IW41 1-473): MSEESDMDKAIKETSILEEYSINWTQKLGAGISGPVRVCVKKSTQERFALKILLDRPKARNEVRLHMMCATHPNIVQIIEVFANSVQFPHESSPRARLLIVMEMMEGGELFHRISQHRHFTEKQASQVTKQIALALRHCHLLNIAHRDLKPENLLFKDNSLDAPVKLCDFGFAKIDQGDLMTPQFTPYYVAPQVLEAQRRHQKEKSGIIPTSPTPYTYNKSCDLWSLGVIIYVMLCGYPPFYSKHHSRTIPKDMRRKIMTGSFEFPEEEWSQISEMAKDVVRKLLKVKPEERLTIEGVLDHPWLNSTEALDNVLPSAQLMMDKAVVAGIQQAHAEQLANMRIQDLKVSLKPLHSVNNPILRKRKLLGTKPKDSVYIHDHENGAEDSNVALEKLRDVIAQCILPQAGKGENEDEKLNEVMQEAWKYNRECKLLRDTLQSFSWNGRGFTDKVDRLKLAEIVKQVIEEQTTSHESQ
The procedure, abridged:
(§1)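 Compounds were tested in vitro against the kinase panel by a service lab. Assays followed standard ZLyte or Adapta protocols. Activity was recorded as % inhibition at 10 µM or 1 µM, with IC50 values where determined.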

For another experiment, the target named is T2, DAPK1 (Homo sapiens, UniProt P53355).
T2 construct: purchased Thermo Fisher Scientific
Summed up: as §1

The next experiment concerns the target T3, KIT V559D (Homo sapiens, UniProt P10721, V559D).
T3 construct: purchased Thermo Fisher Scientific
The procedure, abridged:
as §1

For a further experiment, the target named is T4, EGFR (ErbB1) L861Q (Homo sapiens, UniProt P00533, L861Q).
T4 construct: purchased Thermo Fisher Scientific
The procedure, abridged: as §1

For a further experiment, the target named is T5, MAP4K5 (KHS1) (Homo sapiens, UniProt Q9Y4K4).
T5 construct: purchased Thermo Fisher Scientific
Summed up: as §1

The target of the next experiment is T6, JAK2 (Homo sapiens, UniProt O60674).
T6 construct: purchased Thermo Fisher Scientific
Summed up: as §1

In the next experiment the target is T7, CAMK2D (CaMKII delta) (Homo sapiens, UniProt Q13557).
T7 construct: purchased Thermo Fisher Scientific
The procedure, abridged:
as §1

The target in a further experiment is T8, PRKCZ (PKC zeta) (Homo sapiens, UniProt Q05513).
T8 construct: purchased Thermo Fisher Scientific
T8 sequence (Q05513 1-592): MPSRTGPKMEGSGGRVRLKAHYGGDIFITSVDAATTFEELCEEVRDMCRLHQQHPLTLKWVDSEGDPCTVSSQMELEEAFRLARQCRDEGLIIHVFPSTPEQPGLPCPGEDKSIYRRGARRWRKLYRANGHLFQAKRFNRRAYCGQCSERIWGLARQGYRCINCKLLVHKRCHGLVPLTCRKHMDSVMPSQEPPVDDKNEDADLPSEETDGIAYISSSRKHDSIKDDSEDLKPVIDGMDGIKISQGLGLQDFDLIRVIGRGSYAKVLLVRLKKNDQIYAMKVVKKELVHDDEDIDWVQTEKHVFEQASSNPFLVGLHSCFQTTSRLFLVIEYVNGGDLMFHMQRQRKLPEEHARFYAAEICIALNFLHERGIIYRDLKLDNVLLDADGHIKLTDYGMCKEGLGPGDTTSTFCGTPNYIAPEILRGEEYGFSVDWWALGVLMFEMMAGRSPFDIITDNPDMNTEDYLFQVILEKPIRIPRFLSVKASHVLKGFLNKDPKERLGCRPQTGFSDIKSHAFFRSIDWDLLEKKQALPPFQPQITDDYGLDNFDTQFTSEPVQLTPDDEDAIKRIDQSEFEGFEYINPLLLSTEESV
Summed up: as §1

Another experiment has as its target T9, CAMK2A (CaMKII alpha) (Homo sapiens, UniProt Q9UQM7).
T9 construct: purchased Thermo Fisher Scientific
Summed up: as §1

T6 sequence (O60674 whole entry): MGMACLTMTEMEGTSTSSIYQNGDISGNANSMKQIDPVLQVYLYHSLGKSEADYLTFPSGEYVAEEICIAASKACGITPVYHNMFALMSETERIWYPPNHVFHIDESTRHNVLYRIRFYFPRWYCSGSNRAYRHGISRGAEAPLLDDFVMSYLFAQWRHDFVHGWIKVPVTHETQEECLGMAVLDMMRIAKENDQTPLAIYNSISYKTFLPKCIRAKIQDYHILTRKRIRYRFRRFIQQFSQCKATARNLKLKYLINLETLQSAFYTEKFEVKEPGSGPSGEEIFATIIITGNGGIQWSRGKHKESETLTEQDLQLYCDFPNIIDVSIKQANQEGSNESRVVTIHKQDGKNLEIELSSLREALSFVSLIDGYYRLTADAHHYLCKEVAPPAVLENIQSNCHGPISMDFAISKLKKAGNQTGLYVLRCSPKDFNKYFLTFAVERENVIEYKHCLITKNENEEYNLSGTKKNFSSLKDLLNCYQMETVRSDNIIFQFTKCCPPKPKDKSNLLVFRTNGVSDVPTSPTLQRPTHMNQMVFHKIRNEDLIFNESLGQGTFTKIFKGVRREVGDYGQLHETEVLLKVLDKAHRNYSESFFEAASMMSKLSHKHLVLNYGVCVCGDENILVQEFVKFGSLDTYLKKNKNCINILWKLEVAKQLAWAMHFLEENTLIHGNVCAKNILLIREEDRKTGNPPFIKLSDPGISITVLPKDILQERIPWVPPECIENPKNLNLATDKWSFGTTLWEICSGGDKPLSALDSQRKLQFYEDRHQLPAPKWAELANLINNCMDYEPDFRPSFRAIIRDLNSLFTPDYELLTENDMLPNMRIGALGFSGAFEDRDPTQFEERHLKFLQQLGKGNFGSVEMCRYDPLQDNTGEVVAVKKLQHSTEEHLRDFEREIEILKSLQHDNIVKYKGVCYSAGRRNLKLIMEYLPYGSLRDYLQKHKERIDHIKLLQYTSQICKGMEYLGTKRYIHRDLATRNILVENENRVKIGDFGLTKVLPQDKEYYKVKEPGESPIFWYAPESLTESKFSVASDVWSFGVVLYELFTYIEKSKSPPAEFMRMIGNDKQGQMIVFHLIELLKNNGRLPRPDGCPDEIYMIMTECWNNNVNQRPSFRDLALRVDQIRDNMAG
T5 sequence (Q9Y4K4 whole entry): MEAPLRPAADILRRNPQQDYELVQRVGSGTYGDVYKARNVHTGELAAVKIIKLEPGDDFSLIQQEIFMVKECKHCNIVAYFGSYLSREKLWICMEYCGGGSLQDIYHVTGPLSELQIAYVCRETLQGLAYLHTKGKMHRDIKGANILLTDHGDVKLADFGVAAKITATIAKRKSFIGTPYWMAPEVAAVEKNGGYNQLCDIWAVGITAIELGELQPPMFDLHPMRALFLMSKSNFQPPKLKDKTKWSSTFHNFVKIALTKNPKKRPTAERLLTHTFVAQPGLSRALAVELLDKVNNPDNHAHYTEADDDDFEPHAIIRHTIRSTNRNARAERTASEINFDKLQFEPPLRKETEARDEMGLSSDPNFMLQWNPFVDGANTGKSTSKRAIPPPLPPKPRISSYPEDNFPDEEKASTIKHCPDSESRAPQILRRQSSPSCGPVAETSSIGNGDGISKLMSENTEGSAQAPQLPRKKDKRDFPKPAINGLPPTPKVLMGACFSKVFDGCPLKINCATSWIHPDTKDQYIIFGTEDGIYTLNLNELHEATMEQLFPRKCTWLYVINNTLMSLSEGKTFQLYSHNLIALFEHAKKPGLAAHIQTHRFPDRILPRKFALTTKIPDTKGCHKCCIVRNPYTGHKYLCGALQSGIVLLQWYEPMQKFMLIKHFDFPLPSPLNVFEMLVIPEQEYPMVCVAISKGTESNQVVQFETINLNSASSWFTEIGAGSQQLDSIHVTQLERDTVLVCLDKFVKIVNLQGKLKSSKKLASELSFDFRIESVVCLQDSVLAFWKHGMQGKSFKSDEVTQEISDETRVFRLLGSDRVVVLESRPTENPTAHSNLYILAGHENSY
T3 sequence (P10721 26-976 V559D): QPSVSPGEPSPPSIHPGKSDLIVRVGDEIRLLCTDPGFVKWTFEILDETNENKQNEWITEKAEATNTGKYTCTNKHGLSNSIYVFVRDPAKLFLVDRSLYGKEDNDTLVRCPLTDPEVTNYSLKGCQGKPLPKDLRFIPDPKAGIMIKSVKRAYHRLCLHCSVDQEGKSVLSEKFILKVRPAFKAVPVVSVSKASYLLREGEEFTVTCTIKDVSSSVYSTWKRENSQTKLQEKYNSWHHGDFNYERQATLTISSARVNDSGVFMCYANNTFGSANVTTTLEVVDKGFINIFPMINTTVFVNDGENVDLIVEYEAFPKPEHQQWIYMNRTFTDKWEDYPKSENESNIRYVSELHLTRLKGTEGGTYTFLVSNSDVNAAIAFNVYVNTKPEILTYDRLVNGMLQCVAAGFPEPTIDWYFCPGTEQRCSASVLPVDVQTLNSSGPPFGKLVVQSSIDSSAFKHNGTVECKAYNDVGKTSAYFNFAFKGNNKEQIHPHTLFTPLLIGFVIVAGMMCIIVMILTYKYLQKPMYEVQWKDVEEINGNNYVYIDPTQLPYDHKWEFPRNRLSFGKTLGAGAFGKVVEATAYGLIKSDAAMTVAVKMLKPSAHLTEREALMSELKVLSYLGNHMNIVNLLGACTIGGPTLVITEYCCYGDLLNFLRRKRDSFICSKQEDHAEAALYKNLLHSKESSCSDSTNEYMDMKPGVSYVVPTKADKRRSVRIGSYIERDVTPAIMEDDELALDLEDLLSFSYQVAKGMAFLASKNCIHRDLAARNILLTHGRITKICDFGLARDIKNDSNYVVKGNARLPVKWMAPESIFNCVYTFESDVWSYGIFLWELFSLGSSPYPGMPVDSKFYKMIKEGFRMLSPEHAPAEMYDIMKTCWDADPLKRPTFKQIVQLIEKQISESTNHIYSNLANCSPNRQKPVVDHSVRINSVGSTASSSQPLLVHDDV
T4 sequence (P00533 25-1210 L861Q): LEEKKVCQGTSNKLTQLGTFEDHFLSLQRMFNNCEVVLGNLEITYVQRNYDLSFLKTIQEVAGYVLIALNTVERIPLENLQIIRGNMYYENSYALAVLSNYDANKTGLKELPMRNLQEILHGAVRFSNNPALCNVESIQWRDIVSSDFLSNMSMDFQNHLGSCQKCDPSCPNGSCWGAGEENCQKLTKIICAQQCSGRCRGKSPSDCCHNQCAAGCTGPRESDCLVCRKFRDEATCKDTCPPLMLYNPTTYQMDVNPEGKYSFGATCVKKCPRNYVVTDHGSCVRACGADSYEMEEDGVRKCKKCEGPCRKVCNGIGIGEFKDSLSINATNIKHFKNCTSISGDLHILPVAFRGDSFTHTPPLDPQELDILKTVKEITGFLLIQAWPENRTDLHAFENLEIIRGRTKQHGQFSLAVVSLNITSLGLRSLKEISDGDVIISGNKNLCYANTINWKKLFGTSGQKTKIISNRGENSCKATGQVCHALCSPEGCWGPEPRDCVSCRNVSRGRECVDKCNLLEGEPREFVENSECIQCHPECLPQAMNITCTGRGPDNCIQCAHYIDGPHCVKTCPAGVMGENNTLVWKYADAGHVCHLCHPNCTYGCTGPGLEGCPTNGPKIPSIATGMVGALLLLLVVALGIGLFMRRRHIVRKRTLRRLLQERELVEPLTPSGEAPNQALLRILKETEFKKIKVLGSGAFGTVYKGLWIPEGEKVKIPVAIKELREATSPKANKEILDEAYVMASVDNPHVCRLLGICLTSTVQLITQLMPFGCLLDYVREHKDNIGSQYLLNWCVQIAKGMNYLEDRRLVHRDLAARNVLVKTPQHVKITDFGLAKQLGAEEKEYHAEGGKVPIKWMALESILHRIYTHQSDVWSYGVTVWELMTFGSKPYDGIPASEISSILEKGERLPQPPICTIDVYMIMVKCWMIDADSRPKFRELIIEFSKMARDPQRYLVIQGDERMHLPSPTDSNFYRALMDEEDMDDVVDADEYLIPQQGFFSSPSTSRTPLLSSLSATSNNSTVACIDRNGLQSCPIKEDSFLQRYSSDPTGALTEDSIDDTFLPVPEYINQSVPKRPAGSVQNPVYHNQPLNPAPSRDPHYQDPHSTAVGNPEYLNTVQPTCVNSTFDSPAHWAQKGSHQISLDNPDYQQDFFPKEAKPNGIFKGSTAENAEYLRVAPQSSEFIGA

In the case of `COc1ccc2c(c1OC)c(=O)n1c3ccc(O)cc3c3ccnc2c31` [MW01, 5-Hydroxy-10,11-dimethoxy-9H-benzo[c]indolo[3,2,1-ij][1,5]naphthyridin-9-one], the inhibition (usually the drop in the measured response relative to a control, in per cent) at 1 µM on MAPKAPK5 (PRAK) was 8%; on DAPK1, 8%; on KIT V559D, 11%; at EGFR (ErbB1) L861Q, -9%; on MAP4K5 (KHS1), 39%; on JAK2, 15%. Moreover, the inhibition at 1 µM at CAMK2D (CaMKII delta) came out at 13%; at PRKCZ (PKC zeta), 18%; on CAMK2A (CaMKII alpha) it was 12%. In addition, the inhibition at 10 µM on MAPKAPK5 (PRAK) came to 18%; on DAPK1, 14%; on KIT V559D, 25%; at EGFR (ErbB1) L861Q, 8%; on MAP4K5 (KHS1), 68%; on JAK2, 48%. Further, the results for the inhibition at 10 µM at CAMK2D (CaMKII delta), on PRKCZ (PKC zeta) and at CAMK2A (CaMKII alpha) were 60%, 10% and 39%, respectively.

Turning to `COc1ccc2cc3c(N)nn(C(=O)c4cccc(N(C)C)c4)c3nc2c1` [MW05, (3-Amino-7-methoxypyrazolo[3,4-b]quinolin-1-yl)-[3-(dimethylamino)phenyl]methanone], the inhibition at 1 µM was 7% at MAPKAPK5 (PRAK); 3% on DAPK1; 13% at KIT V559D; -6% on EGFR (ErbB1) L861Q; 15% at MAP4K5 (KHS1); -3% at JAK2. Moreover, the inhibition at 1 µM is 3% at CAMK2D (CaMKII delta), 16% at PRKCZ (PKC zeta) and 9% on CAMK2A (CaMKII alpha). The inhibition at 10 µM at MAPKAPK5 (PRAK) is 7%; at DAPK1, 3%; on KIT V559D, 15%; at EGFR (ErbB1) L861Q it was -18%; at MAP4K5 (KHS1) it was 4%; on JAK2, -20%. For the same compound, the inhibition at 10 µM is 13% on CAMK2D (CaMKII delta), -4% at PRKCZ (PKC zeta) and 16% at CAMK2A (CaMKII alpha).
